Results as given in patent publication US7972390B2, “Methods for controlling crystal growth, crystallization, structures and phases in materials and systems” (GR Intellectual Reserve, LLC, priority 2003, dated 2011).

Key:
[1] = Example 8d: phenyl salicylate solubility in neon-lamp conditioned vs unconditioned acetone at room temperature; format: physicochemical; settings: equilibrated about 20 hours
Method: Acetone (about 1 ml) was pipetted into small glass test tubes and stoppers placed in the tube. […] Tubes were conditioned under a neon lamp; (about 8 mW/cm^2) in an otherwise dark room for about 1.5 hours at about 28° C. ambient temperature. Tubes were also placed simultaneously in an incubator at about 28° C. for about 1.5 hours.
Phenyl salicylate (about 3.50 grams) was added to each tube leaving a layer undissolved on the bottom of each tube. The solutions were allowed to equilibrate overnight (about 20 hours). Solution was filtered over the crystals and 0.500 ml pipetted into fresh tubes.
After the acetone evaporated, dry weights of phenyl salicylate per ml dissolved in conditioned and unconditioned acetone were determined.

[2] = Example 8c: sugar solubility in sodium-lamp conditioned vs control water at room temperature; format: physicochemical; settings: for Percent sugar by weight: 23.5° C.
Method: Source, Greeneville Municipal Water supply, Greeneville, Tenn. […] Length 12″.
One beaker “KK” was placed under a sodium lamp 112 for about three hours, as configured in FIG. 97f, while the other Beaker “IL” functioning as the control was placed in an incubator for about three hours at an internal temperature of about 28° C.
Sugar (about 300 grams) was then added to each beaker and stirred.

SMILES | Average amount of phenyl salicylate dissolved ([1]; acetone conditioned under neon lamp about 1.5 hours) | Average amount of phenyl salicylate dissolved ([1]; unconditioned acetone (incubator about 1.5 hours)) | Percent sugar by weight ([2]; Beaker KK: water under Na lamp three hours) | Percent sugar by weight ([2]; Beaker LL: control water 3 hours in incubator) | More sucrose by weight dissolved by conditioned water than by unconditioned control water ([2]; after three hours exposure of the water to the sodium lamp)
O=C(Oc1ccccc1)c1ccccc1O [phenyl salicylate, Phenyl salicylate] | 0.78 g/mL | 0.68 g/mL |  |  | 
OC[C@H]1O[C@@](CO)(O[C@H]2O[C@H](CO)[C@@H](O)[C@H](O)[C@H]2O)[C@@H](O)[C@@H]1O [sucrose, Sucrose] |  |  | 39.1% | 36.7% | about 2.4%
